± gives the expanded uncertainty stated by the source.
Details: Liquid, Ebulliometric method (Recirculating still)

Row | Compound | vapor or sublimation pressure (329.35 K) | vapor or sublimation pressure (337.75 K)
1 | CC(C)=O [acetone] | 101 ± 1.3 kPa | –
2 | CO [methanol] | – | 101 ± 1.3 kPa

From the NIST ThermoML archive (doi:10.1021/je049688b)
